Data set [1] relates to LNCaP cells. The data set can be described thus: Cell viability assay (Presto Blue), 48 h. The format is cell-based, human. Conditions: 48 h treatment, mean of three independent experiments, n.a. = not active at tested concentrations (≤100 µM). How it is done: (§1) To determine the anti-proliferative activity of the compounds on cancer cells, we performed dose–response treatments for 48 h on androgen-sensitive and androgen-insensitive PCa cells (LNCaP and PC3, respectively), as well as CRC cell lines (HCT116 and HT29).
(§2) The human colon cell lines, HT29 (ATCC Cat# HTB-38) and HCT116 (ATCC Cat# CCL-247), were grown in DMEM High-Glucose Medium (Biowest, Nuaillé, France), while the human prostate cell lines, PC3 (ATCC Cat# CRL-1435) and LNCaP (ATCC Cat# CRL-1740), were grown in Ham’s F12 (Biowest, Nuaillé, France) and RPMI 1640 (Biowest, Nuaillé, France), respectively. All media were supplemented with 2 mM glutamine, 100 IU/mL penicillin, 100 μg/mL streptomycin, and 10% fetal bovine serum (FBS, Gibco, Fisher Scientific Italia, Segrate (MI), Italia)). The cells were grown at 37 °C in a humified 5% CO2 atmosphere.
(§3) HCT116, HT29, PC3, or LNCaP cells were seeded into a 96-well plate at a density of 5000 cells/well. Cells were treated with eight different concentrations of pyrimidine derivates and curcumin for 48 h, at concentrations starting at 30 μM with 2-fold serial dilutions for curcumin and starting at 100 μM with 3-fold serial dilutions for pyrimidine derivates. Cell viability was measured using Presto Blue cell viability reagent (#A13261, Thermo Fisher Scientific, Waltham, MA, USA), according to the manufacturer’s protocol. The concentration at which cellular growth is inhibited by 50% (GI50) was determined.

Data set [2] is described as follows: UV-Vis pH-metric spectrophotometric titration, protonation constants (HypSpec). It counts as physicochemical. Conditions: 298 K; for pKa: aqueous solution with <2% v/v methanol. The source says: Pyrimidine derivatives can be considered weak bases, and the pyrimidine nitrogens are protonated in extremely acid conditions (pH < 1), while the NH2 group has a pKa around 5 depending on the electronic effects of the substituents on the aromatic rings. As a consequence, the amino-pyrimidine moiety is in the neutral form at physiological pH (7.4). Among the synthesized compounds, MPY1, MPY3, and PY1 are characterized by additional acid/base moieties, particularly a phenolic group in the meta position for MPY1 and PY1 and an additional primary aliphatic amine for MPY3. To estimate the protonation constants, UV-visible spectroscopy was preferred over potentiometry since the lower concentration range that is required allows it to work in an aqueous medium with a negligible percentage of methanol (<2% v/v). Figure 3 reports the UV-Vis pH-metric titration of MPY1 in the pH range of 2–11. In extremely acid conditions (pH 2, red spectrum), the amine group on the pyrimidine ring is fully protonated, and the molecule is positively charged (H2L^+). The maximum absorbance is observed at 400 nm, with a shoulder at 500 nm. […] Finally, in basic conditions (pH 11, blue spectrum) the phenolic group is deprotonated, and a negatively charged species is observed (L^−) with λmax at 406 nm. […] By plotting the absorbance value vs. pH at λmax, a titration curve is observed ([…]), with two equivalent points around pH = 5 and pH = 9. […] PY1 (Figure S3) is fully protonated below pH 5 (H3L+) and negatively charged in basic conditions (HL^−, L^2−). To estimate protonation constants and pKa values, spectrophotometric data were elaborated using Hypspec, and the logβ values, together with pKa, are reported in Table 1.
To perform spectrophotometric titrations, ligands (denoted generally as L in the following) were dissolved in methanol to give a mother solution (2.50 mM) that was then diluted in water to a final volume of 25 mL in order to obtain a 25/50 μM concentration, depending on the compound, in order to have a maximum absorbance in a range of 0.4–1. The pH (initial value ~5) was varied by adding small amounts (1 μL) of concentrated NaOH/HCl (4 M) in order to investigate the spectral behavior of the 2–11 pH range. In these conditions, the volume variations were negligible. A constant ionic strength (NaNO3, 0.1 M) was maintained in all the experiments. The overall protonation constants (βqr) are defined by the following equations:qL^l− + rH^+ ⇌ [LqHr]^(r − ql)(1) (2) βqr=LqHr^r − ql/L^−l]^q · H^+]^r where L is the ligand in the completely dissociated form and H is a proton. βqr values were refined from spectrophotometric data using least-squares calculations in HypSpec. The results of least-squares calculations include the standard deviations and correlation coefficients of the refined parameters. The quantities were obtained by performing error propagation calculations from the experimental errors on the parameters. The stability constant refinement furnishes least-squares estimates of the standard deviation, σ, of the stability constant, β. The error on logβ is calculated as follows: σ(logβ) = [log(β + σ) − log(β − σ)]/2, as previously reported.

Data set [3] deals with HT29 cells. The arrangement: method as in PMID 27614381. The settings on record: read-out: GI50 (printed IG50), HT29 cell proliferation; cited from earlier work.
Data set [4] relates to HT29 cells. Nature of the data set: Cell viability assay (Presto Blue), 48 h. It counts as cell-based. Conditions: Homo sapiens, HT-29; HT29, 48 h treatment, mean of three independent experiments; n.a. = not active at tested concentrations (≤100 µM). As to the method:
as §1, §2, §3

Data set [5] has as its system HCT116 cells. Nature of the data set: Cell viability assay (Presto Blue), 48 h. The format is cell-based. Conditions: Homo sapiens, HCT-116; HCT116, 48 h treatment, mean of three independent experiments; n.a. = not active at tested concentrations (≤100 µM). How it is done: as §1, §2, §3
Data set [6] concerns PC3 cells. Nature of the data set: Cell viability assay (Presto Blue), 48 h. It counts as cell-based, human. The settings on record: PC3, 48 h treatment, mean of three independent experiments, n.a. = not active at tested concentrations (≤100 µM). How it is done:
as §1, §2, §3

The subject of data set [7] is PC3 cells. The data set can be described thus: Cell cycle analysis (propidium iodide cytofluorimetry). The format is cell-based, human. Conditions: PC3, 48 h at GI50 dose; control 14.6%. As to the method:
(§4) To further investigate the effects of PY1 and PY3 on cell growth, we analyzed the cell cycle progression of LNCaP cells treated at GI50 doses for 48 h (Figure 6 and Figure S4). […] Compared to curcumin, PY1 induced a similar but enhanced effect on the cell cycle, with apoptosis and S-phase being 9.6% and 6.4%, respectively. […] This effect was similarly observed in PC3 and HCT116 cells, with G2/M cells increasing from 14.6% to 62% in PC3 and from 17% to 33% in HCT116 cells (Figure S4).
(§5) Cells were seeded into a 24-well plate at a density of 35,000 cells/well and harvested after 48 h of treatment at GI50 concentrations. Cell cycle analysis of cells stained with propidium iodide solution (propidium iodide 25 µg/mL, Na-Citrate 3.4 mM, NaCl 9.65 mM, NP-40 0.03%) was performed using an Attune Next cytofluorimeter (Thermo Fisher Scientific, Waltham, MA, USA). DMSO was used as the control. Statistical analysis was performed with GraphPad PRISM 6 software (GraphPad Prism), using two-way ANOVA as specified in the figure legends. Graph represents means ± standard errors of the mean (SEM), n = 3. Data were considered to be statistically significant if p < 0.05 (*), p < 0.01 (**), p < 0.001(***), and p < 0.0001 (****).

For data set [8], the system named is LNCaP cells. The data set is described as above. The format is cell-based, human. Conditions: 48 h at GI50 dose; for % cells SubG1 (apoptotic cells): DMSO control 0.9; for % cells S: DMSO control 12.5; for % cells G2/M: DMSO control 18.4; for % cells G0/G1: DMSO control 65.1. How it is done: as §4, §5
The test system of data set [9] is HCT116 cells. The description is as above. It counts as cell-based, human. The settings on record: HCT116, 48 h at GI50 dose; control 17%. How it is done: as §4, §5
On the set-up of data set [10]: method as in doi:10.1016/S0020-1693(01)00687-9. The settings on record: cited from earlier work.
The mark [11] stands for this setting: aqueous solution, spectrophotometric data, HypSpec.
[12] abbreviates: logβ11 (MPY1, MPY3) or logβ12 − logβ11 (PY1), read-out: pKa2.
The mark [13] stands for this setting: logβ12 − logβ11 (MPY1, MPY3) or logβ13 − logβ12 (PY1), read-out: pKa1.

Where two headings read alike, the source gives them in different places.

The text below walks through data of publication PMC10531168, “Development of Stable Amino-Pyrimidine–Curcumin Analogs: Synthesis, Equilibria in Solution, and Potential Anti-Proliferative Activity” (International Journal of Molecular Sciences, 2023).

In data set [1] (Homo sapiens, 48 h), `COc1cc(/C=C/c2cc(C)nc(N)n2)ccc1O` [MPY1, 4-[(E)-2-(2-amino-6-methylpyrimidin-4-yl)ethenyl]-2-methoxyphenol] yielded a GI50 of 73.9 ± 9.9 µM. In addition, in [2] (setting [11]), the “logβ11 (overall protonation constant)” value came to 8.99 ± 0.01 and the “logβ12 (overall protonation constant)” value is 13.72 ± 0.01. In data set [2] (setting [12]), the pKa is 8.99 ± 0.01. Moreover, the pKa in [2] (setting [13]) was 4.73 ± 0.02.

Regarding `COc1ccc(/C=C/C(=O)CC(=O)/C=C/c2ccc(OC)c(OC)c2)cc1OC` [DiMC, bis-dimethoxycurcumin], the GI50 in data set [3] was 43.4 µM.

In the case of `COc1ccc(/C=C/c2cc(/C=C/c3ccc(OC)c(OC)c3)nc(N)n2)cc1OC` [PY3, 4,6-bis[(E)-2-(3,4-dimethoxyphenyl)ethenyl]pyrimidin-2-amine], the GI50 worked out at 19.7 ± 1.1 µM in [4]; 37.9 ± 11.6 µM in [5]; 14.7 ± 0.9 µM in data set [6] (Homo sapiens, PC-3, 48 h); 12.1 ± 2 µM in data set [1] (Homo sapiens, 48 h). The “% cells G2/M” value was 62% in [7], 54.6% in data set [8] and 33% in [9]. For the same compound, in [8], the “% cells SubG1 (apoptotic cells)” value was found to be 4.7%. In addition, in data set [8], the “% cells S” value stood at 4.7%. In addition, in data set [8], the “% cells G0/G1” value turned out to be 32.8%.

Regarding “4,6-bis[(E)-2-(3-methoxyphenyl)ethenyl]pyrimidin-2-amine [PY4]”, the GI50 in [6] was found to be 82.8 ± 23.4 µM.

In the case of `COc1cc(/C=C/C(=O)CC(=O)/C=C/c2ccc(O)c(OC)c2)ccc1O` [Curcumin, (1E,6E)-1,7-bis (4-hydroxy-3-methoxyphenyl)-1,6-heptadiene-3,5-dione], the GI50 in data set [4] is above 30 µM. In data set [5], this compound showed a GI50 of 13.6 ± 2.9 µM. The GI50 in data set [6] (Homo sapiens, PC-3, 48 h) turned out to be 23.9 ± 0.4 µM. In addition, the GI50 in [1] (Homo sapiens, 48 h) was above 30 µM. Besides, the “pKa of keto-enol moiety” value in [10] is listed as 8.56. Further, in data set [8], the “% cells SubG1 (apoptotic cells)” value was determined as 7.2%, the “% cells S” value worked out at 9.7%, the “% cells G2/M” value stood at 22.3% and the “% cells G0/G1” value was determined as 58.4%.

Consider `COc1cc(/C=C/c2cc(/C=C/c3ccc(O)c(OC)c3)nc(N)n2)ccc1O` [PY1, 4,4′-{(2-aminopyrimidine-4,6-diyl)di[(E)ethene-2,1-diyl]}bis(2-methoxyphenol)], for which the GI50 is 45.3 ± 4.1 µM in data set [4]; 19.9 ± 3.3 µM in data set [5]; around 24 µM in [6] (Homo sapiens, PC-3, 48 h); 23.5 ± 9.7 µM in data set [6]; 24.1 ± 8.5 µM in [1]; around 24 µM in data set [1] (Homo sapiens, 48 h). In addition, in data set [2] (setting [11]), the “logβ11 (overall protonation constant)” value was determined as 10.27 ± 0.03. Besides, in data set [2] (setting [11]), the “logβ12 (overall protonation constant)” value is given as 19.30 ± 0.02. For the same compound, in data set [2] (setting [11]), the “logβ13 (overall protonation constant)” value is 24.17 ± 0.05. Besides, the pKa in data set [2] (setting [12]) is 9.04 ± 0.05; in data set [2] (setting [13]) it was 4.86 ± 0.07; in data set [2] (pKa3 = logβ11, read-out: pKa3) it was 10.27 ± 0.03. Moreover, the “% cells SubG1 (apoptotic cells)” value in data set [8] turned out to be 9.6%. Besides, the “% cells S” value in data set [8] stood at 6.4%. Besides, in data set [8], the “% cells G2/M” value turned out to be 24.8%. For the same compound, the “% cells G0/G1” value in data set [8] amounted to 57.8%.

Turning to `COc1ccc(/C=C/c2cc(C)nc(N)n2)cc1OC` [MPY2, 4-[(E)-2-(3,4-dimethoxyphenyl)ethenyl]-6-methylpyrimidin-2-amine], the GI50 in data set [6] (Homo sapiens, PC-3, 48 h) came to 84.4 ± 0.1 µM; in data set [1] (Homo sapiens, 48 h) it was 73.1 ± 14 µM.

`COc1cc(/C=C/c2cc(C)nc(N)n2)ccc1OCCCN` [MPY3, 4-{(E)-2-[4-(3-aminopropoxy)-3-methoxyphenyl]ethenyl}-6-methylpyrimidin-2-amine]: the GI50 amounted to 98 ± 13.6 µM in data set [5] and 68.8 ± 21.7 µM in data set [1] (Homo sapiens, 48 h). Moreover, the “logβ11 (overall protonation constant)” value in data set [2] (setting [11]) is 8.62 ± 0.01. In data set [2] (setting [11]), the “logβ12 (overall protonation constant)” value is on record as 13.04 ± 0.01. In addition, the results for the pKa in [2] (setting [12]) and in data set [2] (setting [13]) were 8.62 ± 0.01 and 4.43 ± 0.02, respectively.
